The target of the test is T1, TRAP1 enzyme (Homo sapiens, UniProt Q12931).
T1 sequence (Q12931 60-704): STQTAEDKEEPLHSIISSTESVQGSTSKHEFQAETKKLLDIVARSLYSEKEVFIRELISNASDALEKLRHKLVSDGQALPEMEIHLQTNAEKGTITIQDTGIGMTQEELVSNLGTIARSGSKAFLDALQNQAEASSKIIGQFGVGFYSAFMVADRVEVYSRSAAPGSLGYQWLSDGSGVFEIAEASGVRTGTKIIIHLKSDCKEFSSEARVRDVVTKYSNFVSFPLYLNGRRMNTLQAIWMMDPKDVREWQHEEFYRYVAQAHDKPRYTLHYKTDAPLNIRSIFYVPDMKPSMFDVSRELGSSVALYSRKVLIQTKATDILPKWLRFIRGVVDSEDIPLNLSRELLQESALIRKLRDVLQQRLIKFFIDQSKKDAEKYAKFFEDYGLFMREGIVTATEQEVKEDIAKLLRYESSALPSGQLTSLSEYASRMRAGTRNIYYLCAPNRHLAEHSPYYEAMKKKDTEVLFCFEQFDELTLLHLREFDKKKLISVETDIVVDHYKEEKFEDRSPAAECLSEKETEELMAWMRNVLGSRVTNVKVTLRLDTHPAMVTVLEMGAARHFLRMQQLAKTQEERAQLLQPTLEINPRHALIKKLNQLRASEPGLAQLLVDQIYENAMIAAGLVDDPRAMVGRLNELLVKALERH
Nature of the test: Malachite green phosphate assay of TRAP1 ATPase activity. Type of test: biochemical. Conditions: for EC50: TRAP1 ATPase activation, 150 nM Trap1, 20 μM ATP, geometric mean, read-out: Malachite Green Fluor DRC: GeoMean EC50; for Emax: read-out: Malachite Green Fluor DRC: Mean Emax. Put shortly: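 Compound (0.78 μM-100 μM) preincubated with 150 nM TRAP1 in 50 mM HEPES pH 7.5, 20 mM KCl, 4 mM MgCl2, 0.05% BSA, 30 min at 37 °C; reaction started with 20 μM ATP, 180 min at 37 °C. Phosphate quantified by malachite green against a standard curve; Emax and EC50 from sigmoidal fits of activation.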

Each structure is given as a SMILES string.

Drawing on patent US20230174523A1, “BENZENESULFONAMIDE DERIVATIVES AS TRAP1 MODULATORS AND USES THEREOF” (Amathus Therapeutics, Inc., priority 2020, published 2023), this text covers EC50 and Emax for nine molecules.

One may read the EC50 as the concentration giving half of the maximal effect. One may read the Emax as the size of the effect at its maximum, as opposed to the concentration needed. With `O=C(O)/C=C/c1ccc(NC(=O)c2ncc(-c3ccccc3)o2)cc1S(=O)(=O)Nc1ccc(Cl)cc1` [Compound 648], the EC50 is less than 10 µM and the Emax was 160 to 199%.

Take `COc1ccc(NC(=O)c2cnc(-c3ccccc3)o2)cc1S(=O)(=O)Nc1ccc(C(F)(F)F)cc1` [Compound 650]: the EC50 was in the range of 20 to 100 µM and the Emax was 200 to 300%.

`O=C(Nc1ccc(OC(F)(F)F)c(S(=O)(=O)Nc2c(Cl)cccc2Cl)c1)c1cnc(-c2ccccc2)o1` [Compound 655]: the EC50 is less than 10 µM and the Emax was in the range of 160 to 199%.

For `COc1ccc(NC(=O)c2cnc(-c3ccccc3)o2)cc1S(=O)(=O)Nc1c(Cl)cccc1Cl` [Compound 662], the EC50 lay in the range of 10 to 20 µM and the maximal response (Emax) is 160 to 199%.

On to `O=C(Nc1ccc(F)c(S(=O)(=O)Nc2ccc(Cl)cc2)c1)c1cc(Cl)ncc1C(F)(F)F` [Compound 743], for which the EC50 is 20 to 100 µM and the maximum response (Emax) lay within 200 to 300%.

For `COc1ccc(NC(=O)c2cccn2-c2ccccc2)cc1S(=O)(=O)Nc1c(C)cccc1C` [Compound 1042], the half-maximal effective concentration (EC50) was less than 10 µM and the Emax is 160 to 199%.

Regarding `COc1ccc(NC(=O)c2ccc3cnccc3n2)cc1S(=O)(=O)Nc1c(C)cccc1C` [Compound 1047], the EC50 fell in the range of 10 to 20 µM and the Emax lay in the range of 160 to 199%.

For the molecule `COc1ccc(NC(=O)c2ccccc2N2CCOCC2)cc1S(=O)(=O)Nc1c(C)cccc1C` [Compound 1048], the EC50 is 10 to 20 µM and the Emax was in the range of 160 to 199%.

Regarding `COc1ccc(NC(=O)c2cc3sccc3s2)cc1S(=O)(=O)Nc1c(C)cccc1C` [Compound 1051], the EC50 was less than 10 µM and the maximum response (Emax) is 160 to 199%.
